From patent publication US12637411B2, “Structurally modified opioids for prevention and treatment of diseases and conditions” (University of Padova, priority 2019, dated 2026)

Columns and labels:
NMDAR = details: cited from earlier work; for trapping: Zanos et al. 2018
[1] = compared to dextromethadone and deuterated dextromethadone (D9, D10, D16), PCT/US2018/016159; cited from earlier work
[2] = Female Urine Sniffing Test (FUST); details: 24 hr after administration, vs. vehicle
[3] = Chronic Unpredictable Stress (CUS) protocol with SPT, FUST, NSFT; details: single dose
Text: The present inventors also performed behavioral analysis of the effect of both d-methadone and ketamine on rats exposed to a Chronic Unpredictable Stress (CUS) protocol.

[4] = Novelty Suppressed Feeding Test (NSFT); details: 72 hr after administration, vs. vehicle
Forced Swim Test (FST) = format: in vivo; details: drug treated vs. vehicle treated animals; d-methadone 10, 20, 40 mg/kg
ARPE-19 cells [5] = experiment: Relative gene expression (NMDAR1, p65, TNF-α, IL-6) in ARPE-19 cells; format: cell-based; details: pretreatment before 1 mM L-glutamate
Procedure: Once the effect of NMDAR antagonists on nuclear translocation of p65 was verified, in order to confirm their anti-inflammatory effect, the present inventors investigated the changes of gene expression levels of the pro-inflammatory cytokines IL-6 (interleukin-6) and TNF-α, the transcription factor p65 and the NMDA receptor.
The first gene for which the level of gene expression was assessed is the 1A subunit of NMDAR receptor dimer (known as NMDAR1).

[6] = tested on: brain derived neurotrophic factor (BDNF); details: 25 mg, 4 hours after administration, vs pre-treatment
ARPE-19 cells [7] = experiment: ARPE-19 cell viability after L-glutamate; details: pretreatment before 1 mM L-glutamate; dextromethadone 30 microMolar
GluR1 and PSD95 = experiment: mTORC1 signaling proteins and synaptic proteins in PFC and hippocampus; details: rat models of depression
Text: Levels of phospho proteins were normalized to total proteins and levels of synaptic proteins were normalized the GAPDH. Results are the mean±S.E.M., n=10-12/group.

ARPE-19 cells [8] = experiment: ROS production in ARPE-19 cells; details: 1 mM L-Glu + 30 μM antagonist; statistical significance not reached
Procedure: This study was conducted also on the retinal cell line ARPE-19 in order to verify how NMDAR activation and blockade influence ROS production.

[9] = Phase 1 Single Ascending Dose (SAD) study
Procedure: The Single Ascending Dose (SAD) study included a parallel group, double-blind, placebo-controlled design. The objectives of the study were to establish PK, PD, and safety of single dose administration. Administration involved cohorts of 5, 20, 60, 100, 150, 200 mg and N=42.

[10] = Phase 1 Multiple Ascending Dose (MAD) study; format: in vivo, healthy opioid-naïve volunteers
Procedure: The objective of the Multiple Ascending Dose (MAD) study was to establish PK, PD, and safety of once daily, 10-day administration. Administration involved cohorts of 25, 50, 75 mg and N=24.

**Q.** Which trapping (NMDAR) does the source give for `c1ccc(C2(N3CCCCC3)CCCCC2)cc1` [PCP] here?
**A.** Its trapping is 98%.

**Q.** Which half-life [1] does the source give for `COc1ccc2c(c1)[C@]13CCCC[C@@H]1[C@H](C2)N(C)CC3` [Dextromethorphan, dextromethorphan] here?
**A.** The half-life was “significantly shorter half-life”.

**Q.** Which “effect in the Female Urine Sniffing Test” value [2] does the source give for `CNC1(c2ccccc2Cl)CCCCC1=O` (stereo not shown) [Ketamine, ketamine] here?
**A.** Its value is “significant improvements”.

**Q.** And the “behavioral effects of CUS (SPT, FUST, NSFT)” value [3]?
**A.** The value was “prevented the behavioral effects of CUS”.

**Q.** And the trapping (NMDAR)?
**A.** Its trapping is 86%.

**Q.** And the “effect in the Novelty Suppressed Feeding Test” value [4]?
**A.** Its value is “significant improvements”.

**Q.** And the “effect in the Forced Swim Test (immobility, climbing, swimming counts)” value (Forced Swim Test (FST))?
**A.** Its value is “significant improvements”.

**Q.** For `CCC(=O)C(C[C@H](C)N(C)C)(c1ccccc1)c1ccccc1` [dextromethadone], which IL-6 gene expression (ARPE-19 cells [5]) is on record?
**A.** Its IL-6 gene expression is “tendency to decrease”.

**Q.** And the NMDAR1 gene expression (ARPE-19 cells [5])?
**A.** The NMDAR1 gene expression was “up to 9 times when compared to the expression level of vehicle-treated cells”.

**Q.** And the TNF-α gene expression (ARPE-19 cells [5])?
**A.** Its TNF-α gene expression is “restored to normal levels”.

**Q.** What about the p65 gene expression (ARPE-19 cells [5]) of the same compound?
**A.** Its p65 gene expression is “decrease in gene expression of p65”.

**Q.** And the “subjects with an increase in BDNF levels post treatment” value [6]?
**A.** Its value is 6 of 6.

**Q.** And the “effect on L-glutamate-induced cell viability decrease” value (ARPE-19 cells [7])?
**A.** Its value is “protective effect on cell viability”.

**Q.** And the “effect in the Female Urine Sniffing Test” value [2]?
**A.** The value was “significant improvements”.

**Q.** And the “behavioral effects of CUS (SPT, FUST, NSFT)” value [3]?
**A.** Its value is “prevented the behavioral effects of CUS”.

**Q.** And the “levels of GluR1 and PSD95” value (GluR1 and PSD95)?
**A.** Its value is “increase”.

**Q.** And the “effect in the Novelty Suppressed Feeding Test” value [4]?
**A.** The value was “significant improvements”.

**Q.** And the ROS production (ARPE-19 cells [8])?
**A.** Its ROS production is “tendency to decrease”.

**Q.** What about the “Maximum tolerated dose (MTD)” value ([9]; single dose) of the same compound?
**A.** Its value is 150 mg.

**Q.** What about the opioid effects ([9]; up to 150 mg) of the same compound?
**A.** The opioid effects was “no clinically significant opioid effects”.

**Q.** What about the “dissociative or psychotomimetic adverse events” value ([10]; at the tested doses (SAD and MAD)) of the same compound?
**A.** Its value is “did not cause dissociative or psychotomimetic adverse events”.

**Q.** What about the tolerability ([10]; daily doses up to 75 mg for 10 days (single doses up to 150 mg)) of the same compound?
**A.** Its tolerability is “well tolerated”.

**Q.** And the “PK: Cmax, AUCtau Day 1; Cmax, AUCtau, Css Day 10” value ([10]; once daily 25, 50, 75 mg, 10 days)?
**A.** Its value is “linear PK with dose proportionality”.

**Q.** With `CC12CC3CC(C)(C1)CC(N)(C3)C2` [Memantine, memantine] as the compound, how does the off rate (NMDAR; NMDA receptor block) read?
**A.** Its off rate is roughly 5 s.

**Q.** What about the on rate (NMDAR; NMDA receptor block) of the same compound?
**A.** The on rate was 1 s.

**Q.** With `C[C@]12N[C@H](Cc3ccccc31)c1ccccc12` [MK-801] as the compound, how does the IL-6 gene expression (ARPE-19 cells [5]) read?
**A.** Its IL-6 gene expression is “tendency to decrease”.

**Q.** What about the NMDAR1 gene expression (ARPE-19 cells [5]) of the same compound?
**A.** Its NMDAR1 gene expression is “only slightly evident”.

**Q.** What about the TNF-α gene expression (ARPE-19 cells [5]) of the same compound?
**A.** Its TNF-α gene expression is “restored to normal levels”.

**Q.** What about the “effect on L-glutamate-induced cell viability decrease” value (ARPE-19 cells [7]) of the same compound?
**A.** The value was “protective effect on cell viability”.

**Q.** And the trapping (NMDAR)?
**A.** The trapping was 100%.

**Q.** And the ROS production (ARPE-19 cells [8])?
**A.** Its ROS production is “tendency to decrease”.
